Assay results from ChEMBL document CHEMBL2074280, “Acceleration of MRP-associated efflux of rhodamine 123 by genistein and related compounds” (Br J Cancer, 1996).

What was measured:
Assay type in all cases: functional, cell-based
[1] = biological target: T1, Multidrug resistance-associated protein 1 (Homo sapiens, UniProt P33527); assay: TP_TRANSPORTER: increase in DNR intracellular accumulation (DNR: 0.5 uM, Genistein: 200 uM) in COR-L23/R cells
[2] = biological target: T1, Multidrug resistance-associated protein 1; assay: TP_TRANSPORTER: increase in DNR intracellular accumulation (DNR: 0.5 uM, Genistein: 200 uM) in MOR-R cells
[3] = biological target: ATP-dependent translocase ABCB1 (Homo sapiens, UniProt P08183); assay: TP_TRANSPORTER: increase in DNR intracellular accumulation (DNR: 0.5 uM, Genistein: 200 uM) in H69/LX4 cells; settings: h69/lx4, 200 µM

Measured: Activity

T1 sequence (P33527 whole entry): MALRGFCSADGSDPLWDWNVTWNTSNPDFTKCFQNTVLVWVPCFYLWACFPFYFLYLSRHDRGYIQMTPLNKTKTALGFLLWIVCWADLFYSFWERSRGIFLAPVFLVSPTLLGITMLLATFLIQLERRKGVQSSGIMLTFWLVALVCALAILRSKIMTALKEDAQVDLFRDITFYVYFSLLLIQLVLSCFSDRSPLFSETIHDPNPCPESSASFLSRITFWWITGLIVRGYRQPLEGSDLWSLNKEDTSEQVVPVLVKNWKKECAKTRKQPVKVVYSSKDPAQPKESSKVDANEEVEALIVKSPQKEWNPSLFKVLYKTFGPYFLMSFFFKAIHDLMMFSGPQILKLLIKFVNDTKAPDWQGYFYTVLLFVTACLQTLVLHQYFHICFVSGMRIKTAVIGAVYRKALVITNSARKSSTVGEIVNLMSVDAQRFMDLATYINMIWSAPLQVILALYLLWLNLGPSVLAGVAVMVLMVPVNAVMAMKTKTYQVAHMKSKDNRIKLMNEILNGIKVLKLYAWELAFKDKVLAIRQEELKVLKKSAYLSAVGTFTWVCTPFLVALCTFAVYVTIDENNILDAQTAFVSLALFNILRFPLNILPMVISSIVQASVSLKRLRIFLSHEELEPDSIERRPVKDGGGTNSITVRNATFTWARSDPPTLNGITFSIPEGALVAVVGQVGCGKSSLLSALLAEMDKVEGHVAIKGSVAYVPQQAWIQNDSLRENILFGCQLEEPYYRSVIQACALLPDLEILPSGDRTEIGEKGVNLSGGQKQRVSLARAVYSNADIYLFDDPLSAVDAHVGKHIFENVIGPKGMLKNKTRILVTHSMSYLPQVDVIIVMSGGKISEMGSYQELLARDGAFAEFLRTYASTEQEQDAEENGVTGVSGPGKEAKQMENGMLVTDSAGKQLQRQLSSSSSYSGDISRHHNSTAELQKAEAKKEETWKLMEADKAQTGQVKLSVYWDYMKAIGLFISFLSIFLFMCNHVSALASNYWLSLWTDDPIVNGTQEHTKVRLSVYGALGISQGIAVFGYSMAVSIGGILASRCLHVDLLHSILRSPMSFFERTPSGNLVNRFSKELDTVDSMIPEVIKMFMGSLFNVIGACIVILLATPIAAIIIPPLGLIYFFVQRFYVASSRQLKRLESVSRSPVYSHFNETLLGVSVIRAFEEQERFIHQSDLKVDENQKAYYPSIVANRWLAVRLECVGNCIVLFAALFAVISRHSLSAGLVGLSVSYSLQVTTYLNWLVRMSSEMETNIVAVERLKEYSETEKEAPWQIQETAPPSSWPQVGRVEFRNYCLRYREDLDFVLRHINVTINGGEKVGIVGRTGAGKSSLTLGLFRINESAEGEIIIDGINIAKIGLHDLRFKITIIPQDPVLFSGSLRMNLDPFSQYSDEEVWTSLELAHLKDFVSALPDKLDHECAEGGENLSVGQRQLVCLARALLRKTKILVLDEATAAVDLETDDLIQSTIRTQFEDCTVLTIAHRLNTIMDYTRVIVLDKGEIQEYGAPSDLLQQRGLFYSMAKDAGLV
Chain of ATP-dependent translocase ABCB1 (P08183 whole entry): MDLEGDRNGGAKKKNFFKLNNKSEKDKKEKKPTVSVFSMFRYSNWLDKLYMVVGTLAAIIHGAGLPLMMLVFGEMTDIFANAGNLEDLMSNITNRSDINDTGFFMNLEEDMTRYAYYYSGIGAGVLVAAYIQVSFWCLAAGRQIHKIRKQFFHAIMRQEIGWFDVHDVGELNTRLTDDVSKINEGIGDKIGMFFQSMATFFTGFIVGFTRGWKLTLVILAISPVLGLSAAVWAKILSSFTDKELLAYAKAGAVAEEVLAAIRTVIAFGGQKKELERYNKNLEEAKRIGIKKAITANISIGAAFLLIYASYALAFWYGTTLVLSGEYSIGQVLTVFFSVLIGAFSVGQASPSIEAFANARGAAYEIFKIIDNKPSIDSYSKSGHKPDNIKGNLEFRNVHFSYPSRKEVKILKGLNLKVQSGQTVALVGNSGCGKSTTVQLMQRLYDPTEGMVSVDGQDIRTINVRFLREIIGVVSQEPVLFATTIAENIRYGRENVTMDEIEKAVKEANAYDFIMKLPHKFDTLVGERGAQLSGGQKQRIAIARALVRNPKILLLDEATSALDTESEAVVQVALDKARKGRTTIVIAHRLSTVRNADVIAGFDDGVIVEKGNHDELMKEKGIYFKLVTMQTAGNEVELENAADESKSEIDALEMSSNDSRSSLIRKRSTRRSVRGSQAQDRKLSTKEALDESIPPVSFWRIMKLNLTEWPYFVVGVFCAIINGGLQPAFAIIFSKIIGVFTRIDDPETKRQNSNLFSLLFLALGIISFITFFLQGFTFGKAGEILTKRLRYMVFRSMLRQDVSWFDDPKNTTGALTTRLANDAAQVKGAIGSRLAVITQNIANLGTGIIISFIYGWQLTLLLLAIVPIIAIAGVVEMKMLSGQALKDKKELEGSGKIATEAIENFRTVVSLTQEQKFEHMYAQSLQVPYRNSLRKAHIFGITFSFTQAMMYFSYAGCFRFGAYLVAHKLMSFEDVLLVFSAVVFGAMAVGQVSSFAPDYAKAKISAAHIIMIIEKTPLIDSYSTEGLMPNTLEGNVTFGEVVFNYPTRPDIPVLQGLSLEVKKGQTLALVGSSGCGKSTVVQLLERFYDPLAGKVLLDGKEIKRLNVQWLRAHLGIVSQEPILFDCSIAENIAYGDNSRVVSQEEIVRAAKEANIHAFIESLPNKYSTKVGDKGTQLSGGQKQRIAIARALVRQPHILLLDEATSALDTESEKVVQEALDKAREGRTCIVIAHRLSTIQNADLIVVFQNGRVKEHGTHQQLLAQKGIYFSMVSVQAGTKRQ

O=c1c(-c2ccc(O)cc2)coc2cc(O)cc(O)c12 [GENISTEIN]
inhibitor [+]: all assays above
